Target: TAAR1 (Mus musculus (Mouse), UniProt Q923Y8)
Assay: Radioligand binding assay on TAAR1 (membranes of stably transfected HEK293 cells)
Settings: competition with [3H]-rac-2-(1,2,3,4-tetrahydro-1-naphthyl)-2-imidazoline, 4° C., 30 min
Method: For the construction of expression plasmids the coding sequences of human, rat and mouse TAAR 1 were amplified from genomic DNA essentially as described by Lindemann et al.. The Expand High Fidelity PCR System (Roche Diagnostics) was used with 1.5 mM Mg^2+ and purified PCR products were cloned into pCR2.1—TOPO cloning vector (Invitrogen) following the instructions of the manufacturer. PCR products were subcloned into the pIRESneo2 vector (BD Clontech, Palo Alto, Calif.), and expression vectors were sequence verified before introduction in cell lines.
HEK293 cells (ATCC # CRL-1573) were cultured essentially as described Lindemann et al. (2005). For the generation of stably transfected cell lines HEK293 cells were transfected with the pIRESneo2 expression plasmids containing the TAAR coding sequences (described above) with Lipofectamine 2000 (Invitrogen) according to the instructions of the manufacturer, and 24 hrs post transfection the culture medium was supplemented with 1 mg/ml G418 (Sigma, Buchs, Switzerland). After a culture period of about 10 d clones were isolated, expanded and tested for responsiveness to trace amines (all compounds purchased from Sigma) with the cAMP Biotrak Enzyme immunoassay (EIA) System (Amersham) following the non-acetylation EIA procedure provided by the manufacturer. […] Membrane Preparation and Radioligand Binding
Cells at confluence were rinsed with ice-cold phosphate buffered saline without Ca^2+ and Mg^2+ containing 10 mM EDTA and pelleted by centrifugation at 1000 rpm for 5 min at 4° C. The pellet was then washed twice with ice-cold phosphate buffered saline and cell pellet was frozen immediately by immersion in liquid nitrogen and stored until use at −80° C. Cell pellet was then suspended in 20 ml HEPES-NaOH (20 mM), pH 7.4 containing 10 mM EDTA, and homogenized with a Polytron (PT 3000, Kinematica) at 10,000 rpm for 10 s. The homogenate was centrifuged at 48,000×g for 30 min at 4° C. and the pellet resuspended in 20 ml HEPES-NaOH (20 mM), pH 7.4 containing 0.1 mM EDTA (buffer A), and homogenized with a Polytron at 10,000 rpm for 10 s. The homogenate was then centrifuged at 48,000×g for 30 min at 4° C. and the pellet resuspended in 20 ml buffer A, and homogenized with a Polytron at 10,000 rpm for 10 s. Protein concentration was determined by the method of Pierce (Rockford, Ill.). The homogenate was then centrifuged at 48,000×g for 10 min at 4° C., resuspended in HEPES-NaOH (20 mM), pH 7.0 including MgCl2 (10 mM) and […] homogenized with a Polytron at 10,000 rpm for 10 s.
Binding assay was performed at 4° C. in a final volume of 1 ml, and with an incubation time of 30 min. The radioligand [^3H]-rac-2-(1,2,3,4-tetrahydro-1-naphthyl)-2-imidazoline was used at a concentration equal to the calculated Kd value of 60 nM to give a bound at around 0.1% of the total added radioligand concentration, and a specific binding which represented approximately 70-80% of the total binding. Non-specific binding was defined as the amount of [^3H]-rac-2-(1,2,3,4-tetrahydro-1-naphthyl)-2-imidazoline bound in the presence of the appropriate unlabelled ligand (10 μM). Competing ligands were tested in a wide range of concentrations […]. […] Each experiment was performed in duplicate. All incubations were terminated by rapid filtration through UniFilter-96 plates (Packard Instrument Company) and glass filter GF/C, pre-soaked for at least 2 h in polyethylenimine 0.3%, and using a Filtermate 96 Cell Harvester (Packard Instrument Company). The tubes and filters were then washed 3 times with 1 ml aliquots of cold buffer B. Filters were not dried and soaked in Ultima gold (45 μl/well, Packard Instrument Company) and bound radioactivity was counted by a TopCount Microplate Scintillation Counter (Packard Instrument Company).

Sequence of TAAR1 (Q923Y8 whole entry): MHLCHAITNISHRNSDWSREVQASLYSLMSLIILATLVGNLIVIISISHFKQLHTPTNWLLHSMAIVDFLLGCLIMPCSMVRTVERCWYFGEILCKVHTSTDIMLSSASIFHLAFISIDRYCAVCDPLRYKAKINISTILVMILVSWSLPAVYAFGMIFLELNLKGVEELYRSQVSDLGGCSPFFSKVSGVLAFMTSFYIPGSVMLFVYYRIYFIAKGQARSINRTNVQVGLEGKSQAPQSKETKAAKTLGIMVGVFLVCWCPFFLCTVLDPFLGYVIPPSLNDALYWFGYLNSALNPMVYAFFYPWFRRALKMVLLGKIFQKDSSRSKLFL

SMILES	Ki
NC1=N[C@@H](CCC(F)(F)c2ccc(F)cc2)CO1 [Example 162, (S)-4-[3,3-Difluoro-3-(4-fluoro-phenyl)-propyl]-4,5-dihydro-oxazol-2-ylamine]	0.0022 µM
CC[C@@H](C[C@H]1COC(N)=N1)Oc1ccc2ncccc2c1 [Example 159, (S)-4-[(S)-2-(Quinolin-6-yloxy)-butyl]-4,5-dihydro-oxazol-2-ylamine]	0.0063 µM
CC[C@@H](C[C@H]1COC(N)=N1)Oc1ccc(F)c(F)c1 [Example 119, (S)-4-[(S)-2-(3,4-Difluoro-phenoxy)-butyl]-4,5-dihydro-oxazol-2-ylamine]	0.0017 µM
C[C@@H](C[C@H]1COC(N)=N1)Oc1ccc(F)cc1 [Example 64]	0.0076 µM
C[C@@H](C[C@H]1COC(N)=N1)Oc1ccc(Cl)c(Cl)c1 [Example 75, (S)-4-[(S)-2-(3,4-Dichloro-phenoxy)-propyl]-4,5-dihydro-oxazol-2-ylamine]	0.001 µM
C[C@H](OC[C@H]1COC(N)=N1)c1ccc(F)cc1 [Example 155, (S)-4-[(S)-1-(4-Fluoro-phenyl)-ethoxymethyl]-4,5-dihydro-oxazol-2-ylamine]	0.0032 µM
C[Si](C)(CC[C@H]1COC(N)=N1)c1cccc(Cl)c1 [Example 61, (S)-4-{2-[(3-Chloro-phenyl)-dimethyl-silanyl]-ethyl}-4,5-dihydro-oxazol-2-ylamine]	0.0055 µM
NC1=N[C@@H](CCOc2ccc(F)c(F)c2)CO1 [Example 9, (S)-4-[2-(3,4-Difluoro-phenoxy)-ethyl]-4,5-dihydro-oxazol-2-ylamine]	0.0012 µM
CCC(CC[C@H]1COC(N)=N1)c1ccc(Cl)cc1 (stereo partly drawn) [Example 27, (4S)-4-[3-(4-Chloro-phenyl)-pentyl]-4,5-dihydro-oxazol-2-ylamine]	0.0017 µM
C[C@@H](C[C@H]1COC(N)=N1)Oc1ccc(Cl)c(F)c1 [Example 70, (S)-4-[(S)-2-(4-Chloro-3-fluoro-phenoxy)-propyl]-4,5-dihydro-oxazol-2-ylamine]	0.0036 µM
CC[C@@H](C[C@H]1COC(N)=N1)Oc1ccc(Cl)cc1 [Example 107, (S)-4-[(S)-2-(4-Chloro-phenoxy)-butyl]-4,5-dihydro-oxazol-2-ylamine]	0.001 µM
C[Si](C)(CC[C@H]1COC(N)=N1)c1ccc(Cl)cc1 [Example 67, (S)-4-{2-[(4-Chloro-phenyl)-dimethyl-silanyl]-ethyl}-4,5-dihydro-oxazol-2-ylamine]	0.0046 µM
NC1=N[C@@H](CCOc2ccc(Oc3ccccc3)cc2)CO1 [Example 36, (S)-4-[2-(4-Phenoxy-phenoxy)-ethyl]-4,5-dihydro-oxazol-2-ylamine]	0.0039 µM
NC1=N[C@@H](CCC2(c3ccc(F)cc3)CC2)CO1 [Example 60, (S)-4-{2-[1-(4-Fluoro-phenyl)-cyclopropyl]-ethyl}-4,5-dihydro-oxazol-2-ylamine]	0.0025 µM
NC1=N[C@@H](CCOc2cccc(C(=O)OCc3ccccc3)c2)CO1 [Example 136, 3-[2-((S)-2-Amino-4,5-dihydro-oxazol-4-yl)-ethoxy]-benzoic acid benzyl ester]	0.0004 µM
NC1=N[C@@H](CCOc2ccc(F)cc2F)CO1 [Example 11, (S)-4-[2-(2,4-Difluoro-phenoxy)-ethyl]-4,5-dihydro-oxazol-2-ylamine]	0.0011 µM
NC1=N[C@@H](CCC2(c3ccc(Cl)cc3)CCC2)CO1 [Example 110, (S)-4-{2-[1-(4-Chloro-phenyl)-cyclobutyl]-ethyl}-4,5-dihydro-oxazol-2-ylamine]	0.0059 µM
C[C@@H](C[C@H]1COC(N)=N1)Oc1ccc(Cl)cc1F [Example 73, (S)-4-[(S)-2-(4-Chloro-2-fluoro-phenoxy)-propyl]-4,5-dihydro-oxazol-2-ylamine]	0.0021 µM

SMILES	Ki
CC(CC[C@H]1COC(N)=N1)c1ccccc1 (stereo partly drawn) [Example 13, (4S)-4-(3-Phenyl-butyl)-4,5-dihydro-oxazol-2-ylamine]	0.0073 µM
COc1cccc(OCC[C@H]2COC(N)=N2)c1 [Example 20, (S)-4-[2-(3-Methoxy-phenoxy)-ethyl]-4,5-dihydro-oxazol-2-ylamine]	0.0025 µM
CC[C@@H](C[C@H]1COC(N)=N1)Oc1ccc(Br)cc1 [Example 111, (S)-4-[(S)-2-(4-Bromo-phenoxy)-butyl]-4,5-dihydro-oxazol-2-ylamine]	0.001 µM
COC(=O)c1cccc(OCC[C@H]2COC(N)=N2)c1 [Example 127, 3-[2-((S)-2-Amino-4,5-dihydro-oxazol-4-yl)-ethoxy]-benzoic acid methyl ester]	0.008 µM
CC[C@@H](C[C@H]1COC(N)=N1)Oc1ccc2ccccc2c1 [Example 153, (S)-4-[(S)-2-(Naphthalen-2-yloxy)-butyl]-4,5-dihydro-oxazol-2-ylamine]	0.0011 µM
CC(C)c1cccc(OCC[C@H]2COC(N)=N2)c1 [Example 21, (S)-4-[2-(3-Isopropyl-phenoxy)-ethyl]-4,5-dihydro-oxazol-2-ylamine]	0.0017 µM
CCC(CC[C@H]1COC(N)=N1)c1cc(F)cc(F)c1 (stereo partly drawn) [Example 124, (4S)-4-[3-(3,5-Difluoro-phenyl)-pentyl]-4,5-dihydro-oxazol-2-ylamine]	0.001 µM
Cc1cccc(OCC[C@H]2COC(N)=N2)c1 [Example 32, (S)-4-(2-m-Tolyloxy-ethyl)-4,5-dihydro-oxazol-2-ylamine]	0.0007 µM
NC1=N[C@@H](CCOc2ccc(Cl)c(F)c2)CO1 [Example 54, (S)-4-[2-(4-Chloro-3-fluoro-phenoxy)-ethyl]-4,5-dihydro-oxazol-2-ylamine]	0.0014 µM
NC1=N[C@@H](CCC2(c3ccc(F)c(Cl)c3)CC2)CO1 [Example 91, (S)-4-{2-[1-(3-Chloro-4-fluoro-phenyl)-cyclopropyl]-ethyl}-4,5-dihydro-oxazol-2-ylamine]	0.0006 µM
NC1=N[C@@H](CCOc2cccc(C(F)(F)F)c2)CO1 [Example 4, (S)-4-[2-(3-Trifluoromethyl-phenoxy)-ethyl]-4,5-dihydro-oxazol-2-ylamine]	0.0009 µM
NC1=N[C@@H](CCOc2ccc(Cl)cc2F)CO1 [Example 58, (S)-4-[2-(4-Chloro-2-fluoro-phenoxy)-ethyl]-4,5-dihydro-oxazol-2-ylamine]	0.0041 µM
C[C@@H](CC[C@H]1COC(N)=N1)c1ccc(F)cc1 [Example 115, (S)-4-[(S)-3-(4-Fluoro-phenyl)-butyl]-4,5-dihydro-oxazol-2-ylamine]	0.0031 µM
CC[C@@H](C[C@H]1COC(N)=N1)Oc1ccc(Cl)cc1F [Example 123, (S)-4-[(S)-2-(4-Chloro-2-fluoro-phenoxy)-butyl]-4,5-dihydro-oxazol-2-ylamine]	0.0065 µM
NC1=N[C@@H](CCOc2ccc(F)cc2)CO1 [Example 2, (S)-4-[2-(4-Fluoro-phenoxy)-ethyl]-4,5-dihydro-oxazol-2-ylamine]	0.0028 µM
CCC(CC[C@H]1COC(N)=N1)c1ccccc1 (stereo partly drawn) [Example 14, (4S)-4-(3-Phenyl-pentyl)-4,5-dihydro-oxazol-2-ylamine]	0.0056 µM
C[C@@H](C[C@H]1COC(N)=N1)Oc1ccc(F)c(Cl)c1 [Example 72, (S)-4-[(S)-2-(3-Chloro-4-fluoro-phenoxy)-propyl]-4,5-dihydro-oxazol-2-ylamine]	0.0024 µM
NC1=N[C@@H](CCOc2cccc(Br)c2)CO1 [Example 35, (S)-4-[2-(3-Bromo-phenoxy)-ethyl]-4,5-dihydro-oxazol-2-ylamine]	0.0001 µM
